Reference: ChEMBL document CHEMBL3046188, “Prodrug-oriented molecular design of neonicotinoids: preparation of imidacloprid-related 5,5-dimethoxy-1,3-diazacyclohexane derivatives and their insecticidal activity” (2005)

Columns and labels:
Format in all cases: functional
[1] = test system: Periplaneta americana; test: Neuroblocking potency in Periplaneta americana (American cockroach) abdominal fifth and sixth ganglia assessed as neuroblocking concentration
[2] = test system: Periplaneta americana; test: Insecticidal activity against Periplaneta americana (American cockroach) administered through injection into abdomen measured 24 hr post compound injection
[3] = test system: Periplaneta americana; test: Insecticidal activity against Periplaneta americana (American cockroach) administered through injection into abdomen co-injceted with 50 ug piperonyl butoxide and 50 ug NIA 16388 measured 24 hr post compound injection
[4] = test system: Myzus persicae; test: Insecticidal activity against Myzus persicae (green peach aphid) reared on compound pre-treated […] plants assessed as insect mortality rate at 4 ppm measured 7 days post compound treatment
[5] = test system: Myzus persicae; test: Insecticidal activity against Myzus persicae (green peach aphid) reared on compound pre-treated […] plants assessed as insect mortality rate at 20 ppm measured 7 days post compound treatment
[6] = test system: Myzus persicae; test: Insecticidal activity against Myzus persicae (green peach aphid) reared on compound pre-treated […] plants assessed as insect mortality rate at 0.16 ppm measured 7 days post compound treatment
[7] = test system: Myzus persicae; test: Insecticidal activity against Myzus persicae (green peach aphid) reared on compound pre-treated […] plants assessed as insect mortality rate at 0.8 ppm measured 7 days post compound treatment
[8] = test system: Myzus persicae; test: Insecticidal activity against Myzus persicae (green peach aphid) reared on compound pre-treated […] plants assessed as insect mortality rate at 100 ppm measured 7 days post compound treatment

| SMILES | Activity [1] [mM] | MLD [2] [µmol] | MLD [3] [µmol] | mortality at 4 ppm [4] [%] | mortality at 20 ppm [5] [%] | mortality at 0.16 ppm [6] [%] | mortality at 0.8 ppm [7] [%] | mortality at 100 ppm [8] [%] |
| --- | --- | --- | --- | --- | --- | --- | --- | --- |
| COC1(OC)CN/C(=C\[N+](=O)[O-])N(CC2CCOC2)C1 (stereo not drawn) | >0.54 | >0.36 | >0.36 | 0 | 60 | – | – | – |
| COC1(OC)CN/C(=N\[N+](=O)[O-])N(Cc2cnc(Cl)s2)C1 | >0.56 | 0.24 | >0.34 | 100 | 100 | 50 | 60 | – |
| COC1(OC)CN/C(=C\[N+](=O)[O-])N(Cc2ccc(Cl)nc2)C1 | 1 | 0.35 | >0.44 | 60 | 90 | – | 0 | – |
| O=[N+]([O-])/N=C1\NCCCN1Cc1ccc(Cl)nc1 | 0.0045 | 9.6e-05 | 0.015 | 100 | 100 | 90 | 100 | – |
| COC1(OC)CN/C(=N\C#N)N(Cc2ccc(Cl)nc2)C1 | 0.62 | >0.4 | >0.4 | 60 | 100 | 20 | 60 | – |
| COC1(OC)CN/C(=N\[N+](=O)[O-])N(Cc2ccc(Cl)nc2)C1 | 0.56 | 0.19 | >0.38 | 100 | 100 | 60 | 90 | – |
| COC1(OC)CN(C)/C(=N\[N+](=O)[O-])N(Cc2cnc(Cl)s2)C1 | >0.54 | 0.36 | >0.36 | 100 | 100 | 40 | 60 | – |
| CC1(C)CN/C(=N\[N+](=O)[O-])N(Cc2ccc(Cl)nc2)C1 | – | – | – | 0 | 60 | – | – | – |
| COC1(OC)CN(C)/C(=N\[N+](=O)[O-])N(Cc2ccc(Cl)nc2)C1 | >0.56 | 0.36 | >0.36 | 90 | 90 | 30 | 60 | – |
| C/N=C(\NCc1ccc(Cl)nc1)N[N+](=O)[O-] | 0.0085 | 0.0051 | 0.0051 | 100 | 100 | 100 | 100 | – |
| N/C(=N\[N+](=O)[O-])NCc1ccc(Cl)nc1 | >0.65 | >0.4 | >0.4 | – | – | – | – | 60 |
| COC1CN/C(=N\[N+](=O)[O-])N(Cc2ccc(Cl)nc2)C1 (stereo not drawn) | – | – | – | 0 | 40 | – | – | – |
